Measurements published in US20250002843A1, “DERIVATION OF NAÏVE BOVINE EMBRYONIC STEM CELLS” (The Semex Alliance, priority 2021, published 2025).

Tested on: ZP-free bovine embryo
Test: Bovine embryo attachment and outgrowth derivation (attachment, TE growth, ICM growth) in culture media
Format: cell-based
Settings: for effect on derivation efficiency on substitution in t2iLGöY media: bovine IL-6 10 ng/ml for human LIF, CGP77675 2 uM for PD0325901
Procedure: The protocol for coating was as follows: • 1. 4 drops of 50 μL of coating solution: 0.1% gelatin or different concentrations of EHS-ECM, provided as a 100× concentrated solution, were applied onto Nunc surface 35 mm^2 cell culture dish (see FIG. 1). • 2. Coated substrates were incubated in a humidified 5% CO2 incubator at 38.5° C. for 1 hour. • 3. After incubation, excess coating solution was removed, 50 uL of cell culture media was applied to the coated area, covered with 4 mL of mineral oil, and 50 ul of additional media was added into each drop. • 4. Media was allowed to equilibrate in a humidified 5% O2, 5% CO2 incubator at 38.5° C. for 2 hours. • 5. After ZP removal and adaptation of embryos, 1 embryo was placed into 1 micro culture drop to start outgrowth derivation. • 6. First attachment rate was determined at 48 hours of outgrowth culture and first media change was done right after first attachment determination. • 7. Attachment rate and outgrowth rate were evaluated every day and media were changed right after daily evaluation.
The protocol for generating LbL ECM coated substrate was as follows: • 1. 40 ul of 0.1% Gelatin type A (diluted with DMEM/F12 basal medium) was applied to the surface of a Nunc 35 mm^2 cell culture dish to make small drops. • 2. The dish was incubated in a humidified 5% CO2 incubator at 38.5° C. for 1 hour. • 3. After incubation, the gelatin solution was removed and 50 ul of DPBS with Ca^2+ and Mg^2+ was added to wash excess gelatin from drops, followed by removal using aspiration. The washing step was repeated 2 times more. • 4. 50 ul of 1×EHS-ECM was applied to the gelatin coated area and incubated in a humidified 5% CO2 incubator at 38.5° C. for 1 hour. • 5. After incubation, EHS-ECM solution was removed, and 50 ul of media was applied; drops were covered with 4 ml of mineral oil, and 50 ul of additional media was added into each drop. • 6. The media was allowed to equilibrate in 5% CO2 incubator for 2 hours.
• 1. Thawing media and outgrowth media was mixed at a 1:1 ratio. • 2. After post-thaw recovery, embryos were washed twice in adaptation media (1:1 ratio of thawing media (e.g. embryo handling media and outgrowth media (e.g. DMEM))) before being put in the adaptation drop in the Dish #1 (FIG. 10). • 4. After 1 hour of adaptation, embryos were then washed four times by transferring to washing drops (outgrowth media) in the Dish #2. • 5. Embryos were then moved to the outgrowth media (DMEM) for plating. • 6. Adapted embryos were then plated into LbL coated micro drop.
FBS (10091, Gibco™), Knock-out Serum Replacement (10828-10, Gibco™), Serum Replacement (S0638, Sigma), B27 supplement (17504-044, Gibco™), and N2 supplement (17502-048, Gibco™) were used for this test. Traditional mouse 2iL media (DMEM/F12+1% MEM non-essential amino acid+2 mM Glutamax+100 µM beta-mercaptoethanol+100 IU penicillin/streptomycin+growth factors/inhibitors including 3 µM CHIR99021, 1 μM PD0325901 and 100 ng/ml LIF) was used as a basal medium for the serum tests of 10% FBS and 20% KOSR, and 1×-, 2×-SR groups. t2iLGöY media (1:1 mixture of DMEM/F12 and neurobasal medium+1% MEM non-essential amino acid+2 mM Glutamax+50 μg/ml BSA, fraction V+100 μM beta-mercaptoethanol+100 IU penicillin/streptomycin+growth factors/inhibitors including 1 μM CHIR99021, 1 μM PD0325901, 10 μM Y27632, 2.5 μM Gö6983 and 10 ng/ml LIF) was used for the testing of N2B27 group. […]

O=C(NOC[C@H](O)CO)c1ccc(F)c(F)c1Nc1ccc(I)cc1F [PD0325901]
derivation efficiency when withdrawn from media (MEK inhibitor withdrawn, embryo cavity formation): decreased

COc1ccc2c(c1)c(C1=C(c3c[nH]c4ccccc34)C(=O)NC1=O)cn2CCCN(C)C [Gö6983]
derivation efficiency on addition in t2iLGoY (side-by-side with 2i, 2iLFk and NHSM media): improved

insulin
hypoblast formation during outgrowth culture (addition of 20 μg/ml to the medium): not observed

COc1cccc(-c2cn(-c3ccc(CCN4CCC(O)CC4)cc3)c3ncnc(N)c23)c1 [CGP77675]
effect on derivation efficiency on substitution in t2iLGöY media: negative effect

B1: bovine IL-6: bovine IL-6, a member of the LIF superfamily (protein, UniProt P26892 30-208, looked up)
Interleukin-6: GPLGEDFKNDTTPGRLLLTTPEKTEALIKRMVDKISAMRKEICEKNDECESSKETLAENKLNLPKMEEKDGCFQSGFNQAICLIRTTAGLLEYQIYLDYLQNEYEGNQENVRDLRKNIRTLIQILKQKIADLITTPATNTDLLEKMQSSNEWVKNAKIILILRNLENFLQFSLRAIRMK
effect on derivation efficiency on substitution in t2iLGöY media: negative effect
